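Where inhibition never reached the appropriate level, the endpoint shown equals the highest concentration tested. Otherwise, values were interpolated linearly from a five-concentration, 48-hour dose response in 96-well plates. GI50: concentration for 50% inhibition of growth. TGI denotes the concentration required for complete inhibition of growth.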
What was measured:
Assay in all cases: NCI anticancer screen, dose series, 48 h
786-0 renal = test system: 786-0 renal
A498 renal = test system: A498 renal
A549 NSCLC = test system: A549 NSCLC
ACHN renal = test system: ACHN renal
BT-549 breast = test system: BT-549 breast
CAKI-1 renal = test system: CAKI-1 renal
COLO 205 colon = test system: COLO 205 colon
DU-145 prostate = test system: DU-145 prostate
EKVX NSCLC = test system: EKVX NSCLC
HCC-2998 colon = test system: HCC-2998 colon
HCT-116 colon = test system: HCT-116 colon
HCT-15 colon = test system: HCT-15 colon
HOP-62 NSCLC = test system: HOP-62 NSCLC
HOP-92 NSCLC = test system: HOP-92 NSCLC
HS 578T breast = test system: HS 578T breast
IGROV1 ovarian = test system: IGROV1 ovarian
KM12 colon = test system: KM12 colon
LOX IMVI melanoma = test system: LOX IMVI melanoma
M14 melanoma = test system: M14 melanoma
MALME-3M melanoma = test system: MALME-3M melanoma
MCF7 breast = test system: MCF7 breast
MDA-MB-231 breast = test system: MDA-MB-231 breast
MDA-MB-435 = test system: MDA-MB-435
NCI-H226 lung = test system: NCI-H226 lung
NCI-H23 lung = test system: NCI-H23 lung
NCI-H460 lung = test system: NCI-H460 lung
NCI-H522 lung = test system: NCI-H522 lung
NCI/ADR-RES ovarian = test system: NCI/ADR-RES ovarian
OVCAR-3 ovarian = test system: OVCAR-3 ovarian
OVCAR-4 ovarian = test system: OVCAR-4 ovarian
OVCAR-5 ovarian = test system: OVCAR-5 ovarian
OVCAR-8 ovarian = test system: OVCAR-8 ovarian
PC-3 prostate = test system: PC-3 prostate
RXF 393 renal = test system: RXF 393 renal
SF-268 CNS = test system: SF-268 CNS
SF-295 CNS = test system: SF-295 CNS
SF-539 CNS = test system: SF-539 CNS
SK-MEL-2 melanoma = test system: SK-MEL-2 melanoma
SK-MEL-28 melanoma = test system: SK-MEL-28 melanoma
SK-MEL-5 melanoma = test system: SK-MEL-5 melanoma
SK-OV-3 ovarian = test system: SK-OV-3 ovarian
SNB-19 CNS = test system: SNB-19 CNS
SNB-75 CNS = test system: SNB-75 CNS
SW-620 colon = test system: SW-620 colon
T-47D breast = test system: T-47D breast
TK-10 renal = test system: TK-10 renal
U251 CNS = test system: U251 CNS
UACC-257 melanoma = test system: UACC-257 melanoma
UACC-62 melanoma = test system: UACC-62 melanoma
UO-31 renal = test system: UO-31 renal

COC(=O)c1cc(O)c2cc3c(cc2c1-c1cc(OC)c(OC)c(OC)c1)OCO3 was tested, and the GI50 (786-0 renal) was 6.23 µM, the TGI (786-0 renal) was over 100 µM and the GI50 (A498 renal) was 0.494 µM. The TGI (A498 renal) was over 100 µM, the GI50 (A549 NSCLC) was 0.762 µM and the TGI (A549 NSCLC) was over 100 µM. It also gave a GI50 (ACHN renal) of 2.59 µM, a TGI (ACHN renal) of over 100 µM and a GI50 (BT-549 breast) of 7.87 µM. The TGI (BT-549 breast) was over 100 µM, the GI50 (CAKI-1 renal) was 0.344 µM and the TGI (CAKI-1 renal) was 5.46 µM. The GI50 (COLO 205 colon) was 2.77 µM, the TGI (COLO 205 colon) was over 100 µM and the GI50 (DU-145 prostate) was 2.16 µM. It also gave a TGI (DU-145 prostate) of over 100 µM, a GI50 (EKVX NSCLC) of 2.63 µM and a TGI (EKVX NSCLC) of over 100 µM. For the same compound, the GI50 (HCC-2998 colon) was 6.85 µM, the TGI (HCC-2998 colon) was over 100 µM and the GI50 (HCT-116 colon) was 0.604 µM. For the same compound, the TGI (HCT-116 colon) was over 100 µM, the GI50 (HCT-15 colon) was 0.738 µM and the TGI (HCT-15 colon) was over 100 µM. It also gave a GI50 (HOP-62 NSCLC) of 1.79 µM, a TGI (HOP-62 NSCLC) of 18.4 µM and a GI50 (HOP-92 NSCLC) of 4.19 µM. It also gave a TGI (HOP-92 NSCLC) of 48.1 µM, a GI50 (HS 578T breast) of 1.43 µM and a TGI (HS 578T breast) of 9.48 µM. It also gave a GI50 (IGROV1 ovarian) of 0.91 µM, a TGI (IGROV1 ovarian) of over 100 µM and a GI50 (KM12 colon) of 0.503 µM. It also gave a TGI (KM12 colon) of over 100 µM, a GI50 (LOX IMVI melanoma) of 1.67 µM and a TGI (LOX IMVI melanoma) of over 100 µM. It also gave a GI50 (M14 melanoma) of 0.893 µM, a TGI (M14 melanoma) of over 100 µM and a GI50 (MALME-3M melanoma) of 0.815 µM. The TGI (MALME-3M melanoma) was over 100 µM, the GI50 (MCF7 breast) was 0.459 µM and the TGI (MCF7 breast) was over 100 µM. For the same compound, the GI50 (MDA-MB-231 breast) was 1.5 µM, the TGI (MDA-MB-231 breast) was over 100 µM and the GI50 (MDA-MB-435) was 0.277 µM. It also gave a TGI (MDA-MB-435) of 1.12 µM, a GI50 (NCI-H226 lung) of 5.12 µM and a TGI (NCI-H226 lung) of over 100 µM. It also gave a GI50 (NCI-H23 lung) of 3.77 µM, a TGI (NCI-H23 lung) of over 100 µM and a GI50 (NCI-H460 lung) of 0.686 µM. The TGI (NCI-H460 lung) was over 100 µM, the GI50 (NCI-H522 lung) was 0.272 µM and the TGI (NCI-H522 lung) was 1.13 µM. It also gave a GI50 (NCI/ADR-RES ovarian) of 0.462 µM, a TGI (NCI/ADR-RES ovarian) of over 100 µM and a GI50 (OVCAR-3 ovarian) of 0.325 µM. For the same compound, the TGI (OVCAR-3 ovarian) was 1.15 µM, the GI50 (OVCAR-4 ovarian) was over 100 µM and the TGI (OVCAR-4 ovarian) was over 100 µM. It also gave a GI50 (OVCAR-5 ovarian) of 50.2 µM, a TGI (OVCAR-5 ovarian) of over 100 µM and a GI50 (OVCAR-8 ovarian) of 11.3 µM. It also gave a TGI (OVCAR-8 ovarian) of over 100 µM, a GI50 (PC-3 prostate) of 2.01 µM and a TGI (PC-3 prostate) of over 100 µM. For the same compound, the GI50 (RXF 393 renal) was 2.95 µM, the TGI (RXF 393 renal) was over 100 µM and the GI50 (SF-268 CNS) was 2.94 µM. It also gave a TGI (SF-268 CNS) of over 100 µM, a GI50 (SF-295 CNS) of 0.536 µM and a TGI (SF-295 CNS) of 5.03 µM. It also gave a GI50 (SF-539 CNS) of 3.34 µM, a TGI (SF-539 CNS) of over 100 µM and a GI50 (SK-MEL-2 melanoma) of 0.4 µM. The TGI (SK-MEL-2 melanoma) was 6.21 µM, the GI50 (SK-MEL-28 melanoma) was 5.34 µM and the TGI (SK-MEL-28 melanoma) was over 100 µM. For the same compound, the GI50 (SK-MEL-5 melanoma) was 0.891 µM, the TGI (SK-MEL-5 melanoma) was over 100 µM and the GI50 (SK-OV-3 ovarian) was 3.02 µM. For the same compound, the TGI (SK-OV-3 ovarian) was over 100 µM, the GI50 (SNB-19 CNS) was 3.57 µM and the TGI (SNB-19 CNS) was over 100 µM. The GI50 (SNB-75 CNS) was 1.37 µM, the TGI (SNB-75 CNS) was 32 µM and the GI50 (SW-620 colon) was 0.496 µM. It also gave a TGI (SW-620 colon) of over 100 µM, a GI50 (T-47D breast) of 2.38 µM and a TGI (T-47D breast) of over 100 µM. It also gave a GI50 (TK-10 renal) of 2.16 µM, a TGI (TK-10 renal) of over 100 µM and a GI50 (U251 CNS) of 0.577 µM. The TGI (U251 CNS) was over 100 µM, the GI50 (UACC-257 melanoma) was 1.8 µM and the TGI (UACC-257 melanoma) was over 100 µM. The GI50 (UACC-62 melanoma) was 1.17 µM, the TGI (UACC-62 melanoma) was over 100 µM and the GI50 (UO-31 renal) was 4.92 µM. It also gave a TGI (UO-31 renal) of over 100 µM.

Reference: PubChem BioAssay (NCI)
